Assays:
rats [1] = test: hot plate test on rats, analgesic effect (Tables 1 and 2); assay type: in vivo
Method: Examination of PROBON'S potentiating effect upon
azidomorphine and azidocodeine, carried out on rats, by
hot plate test, compared with Algopyrine. The compounds
were administered s.c. (subcutaneously).
Examination of the potentiating effect of a few
homopyrimidazole derivatives upon axidomorphine or
azidocodeine, carried out on rats, by Hot plate test, the
compounds were administered s.c.

rats [2] = test: algolytic test, analgesia evaluated by pain score scale (Table A); assay type: in vivo; conditions: for Pain units: pretr. time 1 hour, alone
[3] = modified hot plate test, duration of effect; assay type: in vivo; conditions: azidocodeine alone
rats [4] = conditions: rat, in vivo; for analgesic effect of the component per se (in words): sc
rats [5] = conditions: rat, in vivo

With `Cc1c(N(C)CS(=O)(=O)O)c(=O)n(-c2ccccc2)n1C` [Algopyrin, 2,3-dimethyl-4-methylamino-1-phenyl-5-pyrazolon-N-methane-sulfonic acid, reference compound] the “Analgesic effect, Hot plate test” value (rats [1]; 150 mg/kg s.c., alone) was 33%, the “Analgesic effect, Hot plate test” value (rats [1]; 200 mg/kg s.c., alone) was 49% and the “Analgesic effect, Hot plate test” value (rats [1]; AP 150 mg/kg s.c., AM --, AK dose left blank) was 29%. The “analgesic potency relative to Probon (in words)” value (rats [1]; Hot plate test, rats, s.c.) was “equipotent with Probon” and the “effect on analgesic effect of azidomorphine or azidocodeine (in words)” value (rats [1]; Hot plate test, rats, s.c.) was “does not increase the analgesic effect”.

`COc1ccc2c3c1O[C@H]1[C@H](N=[N+]=[N-])CC[C@H]4[C@@H](C2)N(C)CC[C@@]341` [Azidocodeine] showed a Pain units (rats [2]; Azidocodeine 30 mg/kg p.o.) of 87 Pain units, a Pain units (rats [2]; Azidocodeine 45 mg/kg p.o.) of 38 Pain units and a Pain units (rats [2]; Azidocodeine 60 mg/kg p.o.) of 30 Pain units. The “ED50 in the algolytic test” value (rats [2]; azidocodeine alone, from diagram plotted from Table A) was 32 mg/kg, the “duration of the effect” value [3] was 2 to 2.5 h and the “Analgesic effect, Hot plate test” value (rats [1]; AK 0.250 mg/kg s.c., alone) was 16%.

With `CN1CC[C@]23c4c5ccc(O)c4O[C@H]2[C@H](N=[N+]=[N-])CC[C@H]3[C@H]1C5` [Azidomorphine] the “Analgesic effect, Hot plate test” value (rats [1]; AM 0.015 mg/kg s.c., alone) was 22% and the “analgesic effect of the component per se (in words)” value (rats [4]) was “ineffective”.

In the case of `CCOC(=O)c1cnc2n(c1=O)C(C)CCC2` (stereo not shown) [MZ-108, 3-carbethoxy-4-oxo-6-methyl-6,7,8,9-tetrahydro-homopyrimidazole], the “Analgesic effect, Hot plate test” value (rats [1]; 200 mg/kg s.c., alone) is reported as 18% and the “Analgesic effect, algolytic test” value (rats [4]) is reported as 31%.

For `CCOC(=O)c1c[n+](C)c2n(c1=O)C(C)CCC2` (stereo not shown) [MZ-144, 1,6-dimethyl-3-carbethoxy-4-oxo-6,7,8,9-tetrahydro-homopyrimidazolium-methosulphate], the Pain units (rats [2]; MZ-144 300 mg/kg p.o.) was 75 Pain units, the “Analgesic effect, Hot plate test” value (rats [1]; 50 mg/kg s.c., alone) was 38% and the “Analgesic effect, algolytic test” value (rats [4]) was 59%. For the same compound, the “analgesic effect of the component per se (in words)” value (rats [4]) was “ineffective” and the “Prolongation of narcotic period” value (rats [5]) was 571%.

With `CCOC(=O)C1=CN(C)C2CCCC(C)N2C1=O` (stereo not shown) [MZ-168, 1,6-dimethyl-3-carbethoxy-4-oxo-1,6,7,8,9,10-hexahydro-homopyrimidazole] the “Analgesic effect, Hot plate test” value (rats [1]; 50 mg/kg s.c., alone) was 23%.

For `CCOC(=O)C1CN(C)C2CCCC(C)N2C1=O` (stereo not shown) [MZ-170, 1,6-dimethyl-3-carbethoxy-4-oxo-1,2,3,6,7,8,9,10-octahydro-homopyrimidazole], the “Analgesic effect, Hot plate test” value (rats [1]; 300 mg/kg s.c., alone) was 31%.

For `CC1CCCc2n1c(=O)c(C(=O)[O-])c[n+]2C` (stereo not shown) [MZ-211, 1,6-dimethyl-4-oxo-6,7,8,9-tetrahydro-homopyrimidazole-3-carboxylic acid], the “Analgesic effect, Hot plate test” value (rats [1]; 50 mg/kg s.c., alone) was 38% and the “Analgesic effect, algolytic test” value (rats [4]) was 15%.

In the case of `O=C(CCCN1CCC(O)(c2ccc(Cl)cc2)CC1)c1ccc(F)cc1` [haloperidol, reference compound], the “Prolongation of narcotic period” value (rats [5]) is reported as 255%.

Source: patent publication US4027024A (priority 1972, dated 1977)
